Measurements reported in the CheMixHub ionic liquid set.

Assay: xn = mol fraction of the nth substance listed

CCCCC[N+](CC)(CC)CC.O=S(=O)([N-]S(=O)(=O)C(F)(F)F)C(F)(F)F + CCCCC[P+](CC)(CC)CC.O=S(=O)([N-]S(=O)(=O)C(F)(F)F)C(F)(F)F
101.3 kPa
Details	viscosity [mPa·s]
298.15 K, x1 = 0.6	123
303.15 K, x1 = 1	126
318.15 K, x1 = 0.2	39.5
338.15 K, x1 = 0.6	22.8
343.15 K, x1 = 1	23.3
348.15 K, x1 = 0.8	18.3
353.15 K, x1 = 0.2	13.1
353.15 K, x1 = 1	17.3

CCCCO + CCCC[n+]1ccn(C)c1.N#C[S-]
101 kPa, x1 = 1
Details	viscosity [mPa·s]
328.15 K	1.25
348.15 K	0.846

CCOS(=O)(=O)[O-].CC[N+]1(C)CCOCC1 + O
101 kPa
Details	viscosity [mPa·s]
313.15 K, x2 = 0.193	750
333.15 K, x2 = 0.3681	81
333.15 K, x2 = 0.7786	6.7
343.15 K, x2 = 0.6835	9.5

CCCCCC[n+]1ccc(C)cc1.[Br-] + CO/N=C(\C(=O)N[C@@H]1C(=O)N2C(C(=O)[O-])=C(CSc3nc(=O)c(=O)[n-]n3C)CS[C@H]12)c1csc(N)n1.[Na+].[Na+] + O
viscosity [mPa·s], 100 kPa
Details	288.15 K	293.15 K	298.15 K	303.15 K	308.15 K
x2 = 0, x1 = 0.0007045	1.172	1.028	0.913	0.817	0.738
x2 = 0, x1 = 0.001062	1.183	1.039	0.924	0.824	0.746
x2 = 0, x1 = 0.001422	1.195	1.05	0.934	0.834	0.753
x2 = 0.00034, x1 = 0.0007042	1.221	1.065	0.947	0.847	0.764
x2 = 0.0008651, x1 = 0.0007039	1.316	1.152	1.019	0.911	0.818
x2 = 0.0008655, x1 = 0.001061	1.322	1.159	1.029	0.917	0.826
x2 = 0.0008696, x1 = 0.001421	1.338	1.172	1.038	0.923	0.831
x2 = 0.001399, x1 = 0.0007035	1.412	1.233	1.092	0.974	0.875
x2 = 0.001401, x1 = 0.00142	1.432	1.255	1.116	0.991	0.888
x2 = 0.001409, x1 = 0.00106	1.418	1.244	1.1	0.98	0.881
x2 = 0.001955, x1 = 0.001419	1.545	1.353	1.2	1.062	0.951
x2 = 0.001966, x1 = 0.0007031	1.521	1.329	1.178	1.047	0.938
x2 = 0.00197, x1 = 0.00106	1.534	1.34	1.184	1.054	0.946
x2 = 0.00252, x1 = 0.0007027	1.641	1.432	1.264	1.125	1.01
x2 = 0.002559, x1 = 0.001419	1.685	1.47	1.302	1.143	1.03
x2 = 0.003119, x1 = 0.0007023	1.784	1.555	1.369	1.216	1.088
x2 = 0.003144, x1 = 0.001058	1.807	1.572	1.398	1.231	1.098
x2 = 0.003161, x1 = 0.001418	1.832	1.592	1.412	1.242	1.112
x2 = 0.003971, x1 = 0.0007017	2.011	1.751	1.539	1.363	1.216
x2 = 0.003978, x1 = 0.001417	2.065	1.788	1.585	1.387	1.243
x2 = 0.004835, x1 = 0.0007011	2.288	1.987	1.737	1.534	1.365
x2 = 0.004866, x1 = 0.001415	2.36	2.033	1.798	1.567	1.394
x2 = 0.00487, x1 = 0.001057	2.329	2.011	1.772	1.556	1.379
x2 = 0.005535, x1 = 0.0007006	2.55	2.197	1.919	1.69	1.499
x2 = 0.005568, x1 = 0.001056	2.58	2.228	1.956	1.716	1.513
x2 = 0.00558, x1 = 0.001414	2.61	2.251	1.984	1.726	1.534

[Cl-].[Li+] + CCCCCC[n+]1ccn(C)c1.N#C[S-] + CN1CCCC1=O
298.15 K, 101 kPa
Details	viscosity [mPa·s]
x2 = 0, x1 = 0.04156	2.626
x2 = 0, x1 = 0.07132	3.558
x2 = 0, x1 = 0.1038	4.959

CCCC[n+]1ccn(C)c1.COP(=O)([O-])OC + CCCC[n+]1ccn(C)c1.O=S(=O)([N-]S(=O)(=O)C(F)(F)F)C(F)(F)F
Details	viscosity [mPa·s]
288.15 K, 100 kPa, x2 = 0	1455

CCCC[n+]1ccn(C)c1.[Cl-] + CCO
101 kPa
Details	electrical conductivity [S/m]	viscosity [mPa·s]
293.15 K, x2 = 0.9501	–	1.78
298.15 K, x2 = 0.7003	1.07	10.1
298.15 K, x2 = 0.8002	1.45	4.59
303.15 K, x2 = 0.4991	–	49.8
303.15 K, x2 = 0.6011	–	20.7
303.15 K, x2 = 0.9501	–	1.47

CCCCCCCC[n+]1ccn(C)c1.F[P-](F)(F)(F)(F)F + CN(C)C=O
viscosity [mPa·s], 101 kPa
Details	293.15 K	303.15 K	313.15 K	323.15 K	333.15 K	343.15 K	353.15 K	363.15 K
x1 = 0.002835	0.969	0.865	0.776	0.705	0.644	0.591	0.546	0.505
x1 = 0.00569	0.994	0.887	0.798	0.723	0.659	0.604	0.556	0.514
x1 = 0.01089	1.044	0.929	0.838	0.754	0.686	0.628	0.578	0.533
x1 = 0.01648	1.097	0.973	0.879	0.786	0.714	0.652	0.599	0.552
x1 = 0.02114	1.144	1.013	0.916	0.815	0.739	0.674	0.617	0.569
x1 = 0.02677	1.201	1.059	0.961	0.848	0.768	0.699	0.639	0.588

CCCC[N+]1(C)CCCC1.O=S(=O)([N-]S(=O)(=O)C(F)(F)F)C(F)(F)F + Cc1ccccc1
viscosity [mPa·s], 100 kPa
Details	x2 = 0	x2 = 0.3041	x2 = 0.3965	x2 = 0.5054	x2 = 0.6027	x2 = 0.7066
298.15 K	70.1	–	–	14.96	10.08	–
303.15 K	–	25.03	18.66	–	–	–
313.15 K	37.99	18.55	14.35	–	–	4.73
